Entries after “also recorded” stand apart in the source; their conditions may differ. Like-named read-outs stand apart in the source and are kept apart here. Each block holds one compound with its values, some of them ahead of it.
How the values were obtained:
[1] = system: AMPA/Quisqualate Excitatory Amino Acid Receptor; test: [3H]AMPA radioligand receptor binding assay; details: for activity at the AMPA/quisqualate receptor: [3H]AMPA binding; for % Inhibition of [3H]AMPA binding: compound concentration of 10^-5 M
Excerpt: The assay that was used was a radioligand receptor binding assay using [^3 H]α-amino-3-hydroxy-5-methylisoxazole-4-propionic acid ([^3 H]AMPA) as the radioligand [Murphy et al., Neurochemical Research, 12, 775 (1987)].
^a Percent inhibition of [^3 H]AMPA binding at a compound
concentration of 10^-5 M.

[2] = system: CA1 neurons (rat hippocampal slices); test: Inhibition of evoked synaptic field potential of CA1 neurons in hippocampal slices, before and after L-quisqualic acid exposure; type: cell-based, rat (male Sprague-Dawley); details: for change in IC50 / sensitization after L-quisqualic acid: hippocampal slices after exposure to L-quisqualic acid; for sensitization: fractional increase in potency after L-quisqualic acid (IC50 before vs after); for stimulatory activity prior to treatment with L-quisqualic acid: prior to treatment of hippocampal slices with L-quisqualic acid; for decrease of IC50 values after exposure of the tissue to L-quisqualic acid: IC50 before vs after L-quisqualic acid
Protocol: The IC50 values for inhibition of the evoked synaptic field potential of CA1 neurons of analogs 2-5 were determined both before and after slices were exposed to L-quisqualic acid. Varying degrees of sensitization were observed as shown by the data on Table 2.
Potencies were determined before and after a 4minute exposure of slices t
16 μM Lquisqualic acid. Sensitization refers to the fractional increas
(§1) Transverse hippocampal slices were obtained from 30-100 day-old male Sprague-Dawley rats. Rats were anesthetized with urethane (1.5 g/kg ip) and then decapitated. The brain was removed and placed in ice-cold preparatory medium comprised of 124 mM NaCl, 3.3 mM KCl, 10 mM MgSO4, 0.5 mM CaCl2, 1.2 mM KH2 PO4, 10 mM glucose, and 26 mM NaHCO3 equilibrated with 95% O2 /5% CO2 (pH 7.4). The hippocampus was then isolated and sliced into 500-μm slices using a Campden Instruments VibroSlice microtome. Slices were submerged in preparatory medium at 28° C. which was aerated with 95% O2 /5% CO2 and incubated for 45 min. Slices were then transferred to recording medium comprised of 124 mM NaCl, 3.3 mM KCl, 2.4 mM MgSO4, 2.5 mM CaCl2, 1.2 mM KH2 PO4, 10 mM glucose, and 26 mM NaHCO3 aerated with 95% O2 /5% CO2 (pH 7.4) and incubated at 28° C. for at least 30 min. prior to use.
(§2) Slices were transferred to a small recording chamber containing the recording medium at 34° C. Initially, the upper surface of the slice was exposed to a humid atmosphere containing 95% O2 /5% CO2. Bipolar stimulation (0.1 ms, 10-40 V, 0.1 Hz) was delivered to the Schaffer collateral axons via a pair of Teflon-coated stainless steel wires (0.003 in.). […] The evoked extracellular synaptic field potentials were observed using a storage oscilloscope, and the peak amplitudes were sampled and recorded with a chart recorder. When a suitable field potential was obtained, the slice was submerged in oxygenated medium (34° C.) and the response allowed to stabilize. Test compounds were dissolved in oxygenated medium and were added and removed using a push/pull device allowing a complete change of medium within 30 sec.
Slices were exposed to L-AP4, L-quisqualic acid and the test compound in the following sequence, which is a modification of the previous method: (1) 200 μM L-AP4, (2) test compound, (3) 200 μM L-AP4, (4) 16 μM L-quisqualic acid, (5) 200 μM L-AP4, (6) test compound, (7) 200 μM L-AP4. Slices were washed between each addition of new drug until the peak amplitude of the field potential returned to its pretest level. Full concentration-response curves were determined for the test compound both before and after treatment of slices with L-quisqualic acid. In addition to determining the potency of compounds before and after addition of L-quisqualic acid, this protocol was designed to test for the ability of test compounds to induce the QUIS effect (and thus mimic the effects of L-quisqualic acid) and to test for the "preblocking" and "reversal" effects which have been previously observed only for L-homocysteine sulfinic acid, L-serine O-sulfate, and L-α-aminoadipic acid.
Concentration-response data were obtained by exposing the slice to a concentration of drug which was subthreshold for inhibition of the field potential. Drug concentration was doubled every 4 min until the response had either declined more than 70% or the bath concentration of the drug exceeded 10 mM. […] IC50 values were obtained. by plotting the fractional response remaining at the end of 4 min versus the log of the bath concentration of the drug. The concentration which produced a 50% inhibition of the peak amplitude (IC50) was interpolated from the graph. All reported IC50 values are the mean values for four or more experiments. The results are summarized on Table 2, above.

[3] = system: QUIS effect in hippocampal slices (CA1 region); test: Capability to induce, preblock and reverse the QUIS effect in hippocampal slices; type: cell-based, rat (male Sprague-Dawley); details: sensitization of slices to depolarization by AP4
Protocol: L-Quisqualic acid analogs 2-5 were tested for their capability to induce, preblock and reverse the QUIS effect by the procedures disclosed in the examples hereinbelow. […] Thus, L-quisqualic acid remains the only compound known to induce the QUIS effect. In addition, none of the analogs were capable of preblocking or reversing the sensitization induced by L-quisqualic acid. […] While the precise details are unknown, an induction mechanism shown in FIG. 2, involving multiple sites of interaction such as this, would explain the apparent strict structural requirements for induction, reversal and preblocking of the QUIS effect.
as §1, §2
Slices were exposed to L-AP4, L-quisqualic acid and the test compound in the following sequence, which is a modification of the previous method: (1) 200 μM L-AP4, (2) test compound, (3) 200 μM L-AP4, (4) 16 μM L-quisqualic acid, (5) 200 μM L-AP4, (6) test compound, (7) 200 μM L-AP4. […] Full concentration-response curves were determined for the test compound both before and after treatment of slices with L-quisqualic acid. […]

[4] = system: CA1 neurons (rat hippocampal slices); details: data from Ref. 14, cited from earlier work; for IC50: CA1 region; for sensitization: fractional increase in potency
[5] = system: QUIS effect in CA1 neurons; details: cited from earlier work; for reversal of the QUIS effect after it has been induced: CA1 neurons; for blocking (preblocking) of the QUIS effect: brief exposure of CA1 neurons, removed prior to L-quisqualic acid
AMPA receptor = details: cited from earlier work
kainate receptor = details: cited from earlier work
[6] = system: N-acetyl α-linked acidic dipeptidase; details: hydrolyzes the brain dipeptide Ac-Asp-Glu-OH; cited from earlier work
[7] = system: Ca^2+ /Cl^- -dependent glutamic acid uptake system; details: brain synaptic plasma membrane preparations; cited from earlier work
metabotropic receptor = details: cited from earlier work
[8] = system: CA1 neurons in rat hippocampal slices; details: cited from earlier work
[9] = Rattus norvegicus, Neuron, 4 min, CA1 region, after 4-minute exposure of slices to 16 μM L-quisqualic acid, read-out: IC50 Values ± SEM after quisqualic acid
[10] = Rattus norvegicus, Neuron, CA1 region of the hippocampus, before exposure to L-quisqualic acid, mean of four or more experiments, read-out: IC50 Values ± SEM before quisqualic acid
[11] = after 4-minute exposure to 16 μM L-quisqualic acid, read-out: IC50 Values after quisqualic acid
[12] = before L-quisqualic acid, read-out: IC50 Values before quisqualic acid

activity at the AMPA/quisqualate receptor [1]: active at the AMPA/quisqualate receptor | % Inhibition of [3H]AMPA binding [1]: 55.5% | IC50 [2, 9]: > 10000 µM | IC50 [2, 10]: > 10000 µM
Structure (SMILES): N[C@@H](CC1CC(=O)NC1=O)C(=O)O (mixture of isomers) [Compound 5A, 2,5-Dioxo-α(S)-amino-3(RS)-pyrrolidinepropanoic Acid]
change in IC50 / sensitization after L-quisqualic acid [2]: No significant change in IC50 values

activity at the AMPA/quisqualate receptor [1]: active at the AMPA/quisqualate receptor | IC50 ([2]; CA1 region of the hippocampus, before exposure to L-quisqualic acid, mean of four or more experiments, read-out: IC50 Values ± SEM before quisqualic acid): 9200 ± 1100 µM | IC50 ([2]; CA1 region, after 4-minute exposure of slices to 16 μM L-quisqualic acid, read-out: IC50 Values ± SEM after quisqualic acid): 6800 ± 930 µM
Structure (SMILES): N[C@@H](CC1CC(=O)NC1=O)C(=O)O (mixture of isomers) [Compound 5B, 2,5-Dioxo-α(S)-amino-3(RS)-pyrrolidinepropanoic Acid]
sensitization [2]: 1.3 | change in IC50 / sensitization after L-quisqualic acid [2]: No significant change in IC50 values

Ki ([1]; [3H]AMPA radioligand): 0.37 µM | % Inhibition of [3H]AMPA binding [1]: 93.5% | IC50 [2, 9]: 9.5 ± 2.5 µM | IC50 [2, 10]: 21 ± 4.4 µM
Structure (SMILES): N[C@@H](CC1=CC(=O)NC1=O)C(=O)O [Compound 2, (S)-2,5-Dihydro-2,5-dioxo-α-amino-1H-pyrrole-3-propanoic Acid]
sensitization [2]: 2.2 | stimulatory activity prior to treatment with L-quisqualic acid [2]: high stimulatory activity

% Inhibition of [3H]AMPA binding [1]: 1.1% | decrease of IC50 values after exposure of the tissue to L-quisqualic acid [2]: more than 7 fold | IC50 [2, 9]: 6.8 ± 2.3 µM | IC50 [2, 10]: 95 ± 19 µM
Structure (SMILES): CN1C(=O)C=C(C[C@H](N)C(=O)O)C1=O [Compound 3, (S)-2,5-Dihydro-2,5-dioxo-α-amino-1-methylpyrrole-3-propanoic Acid]
sensitization [2]: 14.0 | change in IC50 / sensitization after L-quisqualic acid [2]: the slices are sensitized to depolarization by these compounds following exposure to L-quisqualic acid; also recorded: first non-phosphorus compounds to which hippocampal slices are known to become sensitized | induction of the QUIS effect [3]: do not induce the QUIS effect

decrease of IC50 values after exposure of the tissue to L-quisqualic acid [2]: more than 7 fold | IC50 [2, 9]: 375 ± 75 µM | IC50 [2, 10]: 2900 ± 320 µM
Structure (SMILES): N[C@@H](CC1=CC(=O)N(CC(=O)O)C1=O)C(=O)O [Compound 4, (S)-2,5-Dihydro-2,5-dioxo-α-amino-1-(carboxymethyl)pyrrole-3-propanoic Acid]
sensitization [2]: 7.7 | change in IC50 / sensitization after L-quisqualic acid [2]: the slices are sensitized to depolarization by these compounds following exposure to L-quisqualic acid; also recorded: first non-phosphorus compounds to which hippocampal slices are known to become sensitized | induction of the QUIS effect [3]: do not induce the QUIS effect

IC50 [2, 9]: 0.8 ± 0.26 µM | IC50 [2, 10]: 1.4 ± 0.6 µM | IC50 ([2]; Rattus norvegicus, Neuron, CA1 region of the rat hippocampus, read-out: IC50, stimulatory effect on CA1 region of the rat hippocampus): 1.4 ± 0.6 µM
Structure (SMILES): N[C@@H](CN1CC(=O)NC1=O)C(=O)O [Compound 6]
sensitization [2]: 1.7 | stimulatory activity prior to treatment with L-quisqualic acid [2]: high stimulatory activity | induction of the QUIS effect [3]: did not exhibit the QUIS effect

Structure (SMILES): N[C@H](CCP(=O)(O)O)C(=O)O [D-AP4, D-2-amino-4-phosphonobutanoic acid]
IC50 [4, 11]: 152 µM | IC50 [4, 12]: 2600 µM | sensitization [4]: 17

Structure (SMILES): N[C@H](Cn1oc(=O)[nH]c1=O)C(=O)O [D-quisqualic acid, reference compound]
IC50 ([2]; Rattus norvegicus, Neuron, 4 min, read-out: IC50 Values ± SEM after quisqualic acid): 10 ± 1.7 µM | IC50 ([2]; Rattus norvegicus, Neuron, read-out: IC50 Values ± SEM before quisqualic acid): 78 ± 8.5 µM | sensitization [2]: 7.5 | change in IC50 / sensitization after L-quisqualic acid [2]: slices become sensitized

Structure (SMILES): N[C@@H](CCP(=O)(O)O)C(=O)O [L-AP4, L-2-amino-4-phosphonobutanoic acid]
IC50 [4, 11]: 55 µM | IC50 [4, 12]: 1800 µM | sensitization [4]: 33

Structure (SMILES): N[C@@H](CCS(=O)O)C(=O)O [L-homocysteinesulfinic acid]
reversal of the QUIS effect after it has been induced [5]: capable of reversing the QUIS effect | blocking (preblocking) of the QUIS effect [5]: the QUIS effect can be blocked

Structure (SMILES): N[C@@H](Cn1oc(=O)[nH]c1=O)C(=O)O [L-quisqualic acid, L-Quisqualic acid]
IC50 [4, 11]: 2.9 µM | IC50 [4, 12]: 3.9 µM | sensitization [4]: 1.3 | affinity for the AMPA receptor (AMPA receptor): high affinity | affinity for the kainate receptor (kainate receptor): high affinity | inhibition of N-acetyl α-linked acidic dipeptidase [6]: inhibits | inhibition of Ca2+/Cl- -dependent glutamic acid uptake system [7]: inhibits | affinity for the metabotropic receptor (metabotropic receptor): high affinity | sensitization of CA1 neurons to depolarization by D- or L-AP4 and related phosphonates [8]: 30-100 fold | induction of the QUIS effect [3]: only L-quisqualic acid sensitized slices to depolarization by AP4

Structure (SMILES): N[C@@H](COS(=O)(=O)O)C(=O)O [L-serine O-sulfate]
reversal of the QUIS effect after it has been induced [5]: capable of reversing the QUIS effect | blocking (preblocking) of the QUIS effect [5]: the QUIS effect can be blocked

Structure (SMILES): N[C@@H](CCCC(=O)O)C(=O)O [L-α-aminoadipic acid]
reversal of the QUIS effect after it has been induced [5]: capable of reversing the QUIS effect | blocking (preblocking) of the QUIS effect [5]: the QUIS effect can be blocked

Reference: US5359087A, “Bioactive quisqualic acid analogs” (Regents of the University of Minnesota, priority 1993, dated 1994)
